Data reported in ChEMBL document CHEMBL3352596, “Discovery of novel inhibitors of vascular endothelial growth factor-A-Neuropilin-1 interaction by structure-based virtual screening” (Bioorg Med Chem, 2014).

Assays:
[1] = molecular target: Neuropilin-1 (Rattus norvegicus) (UniProt Q9QWJ9); test: Inhibition of biotinylated VEGF-A165 from rat recombinant NRP-1 Fc domain at 100 uM
[2] = molecular target: Neuropilin-1 (Rattus norvegicus, UniProt Q9QWJ9); test: Inhibition of biotinylated VEGF-A165 from rat recombinant NRP-1 Fc domain

Molecule: CCOc1cc(CNCCO)ccc1OCc1ccc(Cl)cc1Cl
- inhibition [1]: 71.5%

Molecule: COc1cc(CNCCO)cc(Br)c1OCc1ccccc1Cl
- inhibition [1]: 60.5%

Molecule: Clc1ccc(COc2ccc(CNC3CC3)cc2)cc1
- inhibition [1]: 47.3%

Molecule: CCOc1cc(CNCCO)cc(Br)c1OCc1ccc(Cl)cc1Cl
- Ki [2]: 10.7 µM

Molecule: OCCNCc1ccc(OCc2ccccc2)c(Cl)c1
- inhibition [1]: 45.1%

Molecule: CCCNCc1ccc(OCc2ccc(Cl)cc2Cl)c(OC)c1
- inhibition [1]: 60.2%

Molecule: CC[C@@H](C)NCCCOc1ccc(Cl)c(C)c1C
- inhibition [1]: 52.3%

Molecule: CCOc1cc(CNCc2ccccc2)cc(Cl)c1OCc1ccccc1Cl
- Ki [2]: 11.3 µM

Molecule: CC(C)NCc1ccccc1OCc1ccc(Cl)cc1
- inhibition [1]: 44.8%

Molecule: COc1cc(CNC(C)c2ccccc2)cc(Br)c1OCc1ccccc1Cl (configuration not stated)
- Ki [2]: 9.4 µM

Molecule: CC[C@H](C)c1ccccc1OCCCCN(CC)CC
- inhibition [1]: 41.6%

Molecule: COc1cc(CNCCO)cc(Cl)c1OCc1ccc(Cl)cc1Cl
- Ki [2]: 7.3 µM

Molecule: Cc1cc(O)c(C(=O)COc2ccccc2)c(O)c1
- inhibition [1]: 55.3%

Molecule: H-ATWLPPR-OH
- inhibition [1]: 91.5%
- Ki [2]: 5.2 µM

Molecule: CCNCc1cc(Cl)c(OCc2ccccc2Cl)c(OC)c1
- inhibition [1]: 59.2%

Molecule: CC(=O)Nc1ccc2nc(-c3ccccc3C)oc2c1
- inhibition [1]: 53.3%
